Measurements taken from patent publication US12529032B2, “Methods and culture substrates for controlled induction of biomimetic neural tissues comprising singular rosette structures” (priority 2017, dated 2026).

How the values were obtained:
[1] = system: forebrain neuroepithelial tissues; assay: Singular neural rosette emergence in micropatterned forebrain neuroepithelial tissues, with ROCK inhibition; format: cell-based, human; details: for singular rosette emergence efficiency: presence of 10 μM ROCK inhibitor, 5 days
Description: (§1) NEC biomechanical properties vary by regional phenotype and affect rosette emergence behavior: The inefficient induction of singular rosette emergence in spinal neuroepithelial tissues under micropatterning conditions that were highly efficient for forebrain NECs prompted a re-examination of the optimal circular micropattern size for each regional phenotype. Moreover, we investigated how altering the biomechanical properties of each regional neuroepithelial tissue, by partial inhibition of the Rho-associated protein kinase (ROCK), would affect which micropattern size induced optimal singular rosette emergence. D-1 hESCs and 72-hr caudalized NMPs were seeded at 100,000 and 250,000 cells/cm^2, respectively, onto 150 (0.018 mm^2), 180 (0.025 mm^2), 200 (0.031 mm^2), 250 (0.049 mm^2), and 400 μm (0.126 mm^2) diameter circular micropattern arrays to generate forebrain and spinal neuroepithelial tissues (FIGS. 6A-6B and 6D-6E). […] Similar to our previous results, the efficiency of singular neural rosette emergence for forebrain tissues peaked at 85% on 250 μm (0.049 mm^2) diameter circular micropatterns (FIG. 6C). However, in the presence vs. absence of ROCK inhibitor, the efficiency curve shifted leftward inducing singular rosette emergence in 75% vs. 0% of 150 μm (0.018 mm^2), 89% vs. 50% of 180 μm (0.025 mm^2), 87% vs. 58% of 200 μm (0.031 mm^2), and 11% vs. 85% of 250 μm (0.049 mm^2) diameter forebrain neuroepithelial tissues, respectively.
Generation of Micropatterned Forebrain Neural Tissues: WA09 or HUES3 Hb9::GFP hESCs were maintained in Essential 8 medium (E8) on MATRIGEL™-coated TCPS plates and routinely passaged with Versene (Thermo Fisher). NEC derivation from hPSCs was performed in accordance with the E6 protocol (23). To generate NEC-derived micropatterned tissues at various stages of neural derivation, cells were first rinsed with PBS, dissociated with Accutase (Thermo Fisher) for 5 minutes at 37° C., and collected via centrifugation at 1000 rpm for 5 minutes. Singularized NECs were re-suspended in E6 media with 10 μM ROCK inhibitor (Y27632; R&D Systems) and seeded onto micropatterned substrates at 75,000 cells/cm^2 in 2 mL of media per well. The following day the media was replaced with 2 mL of E6 media and 50% media changes were performed daily thereafter. Alternatively, to generate hPSC-derived micropatterned tissues, hPSC cultures at ˜85% confluency were rinsed with PBS, dissociated with Accutase for 5 minutes at 37° C. and collected via centrifugation at 1000 rpm for 5 minutes. Singularized hPSCs were then suspended in E8 media with 10 μM ROCK inhibitor and seeded onto micropatterned substrates at 100,000 cells/cm^2 in 2 mL of media per well. The following day the media was replaced with 2 mL of E6 media and 50% media changes were performed daily thereafter.
Immunocytochemistry and Microscopy: Micropatterned tissues were rinsed with PBS and fixed with 4% paraformaldehyde (PFA, Sigma Aldrich) in PBS for 10 minutes at room temperature. Following three rinses with phosphate buffered saline (PBS), the micropatterned substrates were blocked and permeabilized in PBS with 5% Donkey Serum and 0.3% Triton X-100 (TX100; Thermo Fisher) (PBS-DT) for 1 hour at room temperature. Next, the tissues were incubated with primary antibodies diluted in PBS-DT for 2 hours at room temperature or overnight at 4° C. Then, the substrates were rinsed in PBD-DT 3 times for 15 minutes each. Secondary antibodies were diluted in PBS-DT and exposed to the tissues for 1 hour at room temperature. Tissue nuclei were subsequently stained with 300 nM 4′,6-diamidino-2-phenylindoldihydrochloride (DAPI, Sigma Aldrich) for 30 minutes followed by three 15 minute PBS washes. The micropatterned substrates were mounted on glass coverslips using Prolong Gold Antifade Reagent (Thermo Fisher). […]

[2] = system: spinal neuroepithelial tissues; assay: Singular neural rosette emergence in micropatterned spinal neuroepithelial tissues, with ROCK inhibition; format: cell-based, human; details: for effect on ability to form neural rosettes: 10 μM ROCK inhibitor, 5 days, spinal neuroepithelial tissues, dihydrochloride
Description: as §1
Generation of Micropatterned Spinal Cord Neuroepithelial Tissues: Caudalization of hPSC-derived cultures to generate micropatterned neuroepithelial tissues of the cervical/thoracic spinal cord was performed using a modified version of the deterministic HOX patterning protocol (36). Human PSCs were dissociated with Accutase and seeded onto MATRIGEL™-coated, 6-well TCPS plates at 150,000 cells/cm^2 in E8 media comprising 10 μM ROCK inhibitor. […]

C[C@@H](N)[C@H]1CC[C@H](C(=O)Nc2ccncc2)CC1.Cl.Cl [ROCK inhibitor, (+)-(R)-trans-4-(1-aminoethyl)-N-(4-pyridyl)cyclohexanecarboxamide dihydrochloride]
effect on rosette formation capacity ([1]; 10 μM Rock inhibitor, forebrain NECs): only partially diminish
NEC density in presence vs. absence of ROCK inhibitor ([1]; forebrain tissues of a given micropattern size, 10 μM): did not vary significantly
singular rosette emergence efficiency ([1]; 150 μm (0.018 mm^2) diameter circular micropatterns): 75%
singular rosette emergence efficiency ([1]; 180 μm (0.025 mm^2) diameter circular micropatterns): 89%
singular rosette emergence efficiency ([1]; 200 μm (0.031 mm^2) diameter circular micropatterns): 87%
singular rosette emergence efficiency ([1]; 250 μm (0.049 mm^2) diameter circular micropatterns): 11%
effect on ability to form neural rosettes [2]: completely abolished their ability form neural rosettes
effect on ability to form neural rosettes ([2]; listed as Rock inhibitor): fully eliminate
NEC density in presence vs. absence of ROCK inhibitor ([2]; spinal tissues of a given micropattern size, 10 μM): did not vary significantly
